This note sets out measurements from patent US20220235051A1, “DI-FLUORO AZEPANES AS HBV CAPSID ASSEMBLY MODULATORS” (priority 2019, published 2022).

For the experiment, the system named is HBV. Nature of the experiment: HBV replication inhibition assay (BDNA assay) in HepG2.2.15 cells. Type of experiment: cell-based. Conditions: HepG2.2.15 cells, BDNA assay, encapsidated HBV DNA in supernatant at day 6, read-out: HepG2.2.15 EC50 HBV DNA. As for the experimental part: HBV replication inhibition by the disclosed compounds were determined in cells infected or transfected with HBV or cells with stably integrated HBV, such as HepG2.2.15 cells (Sells et al. 1987). In this example, HepG2.2.15 cells were maintained in cell culture medium containing 10% fetal bovine serum (FBS), Geneticin, L-glutamine, penicillin and streptomycin. HepG2.2.15 cells were seeded in 96-well plates at a density of 40,000 cells/well and were treated with serially diluted compounds at a final DMSO concentration of 0.5% either alone or in combination by adding drugs in a checker box format. Cells were incubated with compounds for three days, after which medium was removed and fresh medium containing compounds was added to cells and incubated for another three days. At day 6, supernatant was removed and treated with DNase at 37° C. for 60 minutes, followed by enzyme inactivation at 75° C. for 15 minutes. Encapsidated HBV DNA was released from the virions and covalently linked HBV polymerase by incubating in lysis buffer (Affymetrix QS0010) containing 2.5 μg proteinase K at 50° C. for 40 minutes. HBV DNA was denatured by addition of 0.2 M NaOH and detected using a branched DNA (BDNA) QuantiGene assay kit according to manufacturer recommendation (Affymetrix). HBV DNA levels were also quantified using qPCR, based on amplification of encapsidated HBV DNA extraction with QuickExtraction Solution (Epicentre Biotechnologies) and amplification of HBV DNA using HBV specific PCR probes that can hybridize to HBV DNA and a fluorescently labeled probe for quantitation. In addition, cell viability of HepG2.2.15 cells incubated with test compounds alone or in combination was determined by using CellTitre-Glo reagent according to the manufacturer protocol (Promega). The mean background signal from wells containing only culture medium was subtracted from all other samples, and percent inhibition at each compound concentration was calculated by normalizing to signals from HepG2.2.15 cells treated with 0.5% DMSO using equation E1.
% inhibition=(DMSOave−Xi)/DMSOave×100% E1
where DMSOave is the mean signal calculated from the wells that were treated with DMSO control (0% inhibition control) and Xi is the signal measured from the individual wells. EC50 values, effective concentrations that achieved 50% inhibitory effect, were determined by non-linear fitting using Graphpad Prism software (San Diego, Calif.) and equation E2.
Y=Ymin+(Ymax−Ymin)/(1+10(Log EC50−X)×HillSlope) E2
where Y represents percent inhibition values and X represents the logarithm of compound concentrations.
Selected disclosed compounds were assayed in the HBV replication assay (BDNA assay), as described above, and a representative group of these active compounds is shown in Table 3.

Setting [1] is: Hepatitis B virus, HepG2.2.15, 144 h.

Structures are written as SMILES. Like-named read-outs stand apart in the source and are kept apart here.

On to `C#C[C@]1(O)CCC(F)(F)c2c3c(nn2C1)C[C@@H](C)N(C(=O)Nc1ccnc(C(F)F)c1F)C3` (relative stereo) [Example 100, (3R,8S*)-N-(2-Difluoromethyl)-3-fluoropyridin-4-yl)-8-ethynyl-11,11-difluoro-8-hydroxy-3-methyl-3,4,8,9,10,11-hexahydro-1H-pyrido[4′,3′:3,4]pyrazolo[1,5-a]azepine-2(7H)-carboxamide], for which, under setting [1], the EC50 worked out at 168 nM.
In the case of `C[C@@H]1Cc2nn3c(c2CN1C(=O)Nc1ccc(F)c(C#N)c1)C(F)(F)C[C@@H](CO)CC3` (relative stereo) [Example 132], under setting [1], the EC50 was 7 nM.
For the compound `O=C(Nc1ccnc(Br)c1F)N1CCc2nn3c(c2C1)C(F)(F)CCC(O)(COCC(F)F)C3` (single isomer, unassigned) [Example 32, (R*)-N-(2-Bromo-3-fluoropyridin-4-yl)-8-((2,2-difluoroethoxy)methyl)-11,11-difluoro-8-hydroxy-3,4,8,9,10,11-hexahydro-1H-pyrido[4′,3′:3,4]pyrazolo[1,5-a]azepine-2(7H)-carboxamide], under setting [1], the EC50 was 138 nM.
`O=C(Nc1ccnc(Br)c1F)N1CCc2nn3c(c2C1)C(F)(F)CCC(O)(CF)C3` (single isomer, unassigned) [Example 38, (S*)-N-(2-Bromo-3-fluoropyridin-4-yl)-11,11-di fluoro-8-(fluoromethyl) -8-hydroxy-3,4,8,9,10,11-hexahydro-1H-pyrido[4′,3′:3,4]pyrazolo[1,5-a]azepine-2(7H)-carboxamide]: the 50% effective concentration (EC50) under setting [1] was determined as 84 nM.
Consider `C=CC1(O)CCC(F)(F)c2c3c(nn2C1)CCN(C(=O)Nc1ccc(F)c(C#N)c1)C3` (single isomer, unassigned) [Example 56, (R*)-N-(3-Cyano-4-fluorophenyl)-11,11-difluoro-8-hydroxy-8-vinyl-3,4,8,9,10,11-hexahydro-1H-pyrido[4′,3′:3,4]pyrazolo[1,5-a]azepine-2(7H)-carboxamide], for which the EC50 under setting [1] was determined as 16 nM.
On to `C#CC1(O)CCC(F)(F)c2c3c(nn2C1)CCN(C(=O)Nc1ccnc(Br)c1F)C3` (single isomer, unassigned) [Example 63, (R*)-N-(2-Bromo-3-fluoropyridin-4-yl)-8-ethynyl-11,11-difluoro-8-hydroxy-3,4,8,9,10,11-hexahydro-1H-pyrido[4′,3′:3,4]pyrazolo[1,5-a]azepine-2(7H)-carboxamide], for which the concentration for a half-maximal effect (EC50) under setting [1] was found to be 119 nM.
Turning to `C[C@@H]1Cc2nn3c(c2CN1C(=O)Nc1ccc(F)c(C#N)c1)C(F)(F)CCC(CO)C3` (single isomer, unassigned) [Example 75, (3R,8S*)-N-(3-Cyano-4-fluorophenyl)-11,11-difluoro-8-(hydroxymethyl) -3-methyl-3,4,8,9,10,11-hexahydro-1H-pyrido[4′,3′:3,4]pyrazolo[1,5-a]azepine-2(7H)-carboxamide], the concentration giving a half-maximal response (EC50) is 5 nM.
Take `C[C@@H]1Cc2nn3c(c2CN1C(=O)Nc1ccc(F)c(C#N)c1)C(F)(F)CCC(O)(CF)C3` (single isomer, unassigned) [Example 83, (3R,8R*)-N-(3-Cyano-4-fluorophenyl)-11,11-difluoro-8-(fluoromethyl)-8-hydroxy-3-methyl-3,4,8,9,10,11-hexahydro-1H-pyrido[4′,3′:3,4]pyrazolo[1,5-a]azepine-2(7H)-carboxamide]: under setting [1], the 50% effective concentration (EC50) is 10 nM.
The same measure, in the same setting: as for `C[C@@H]1Cc2nn3c(c2CN1C(=O)Nc1ccnc(Br)c1F)C(F)(F)CCC(O)(CF)C3` (single isomer, unassigned) [Example 84, (3R,8R*)-N-(2-Bromo-3-fluoropyridin-4-yl)-11,11-difluoro-8-(fluoromethyl)-8-hydroxy-3-methyl-3,4,8,9,10,11-hexahydro-1H-pyrido[4′,3′:3,4]pyrazolo[1,5-a]azepine-2(7H)-carboxamide], the figure is 69 nM.
On to `C[C@@H]1Cc2nn3c(c2CN1C(=O)Nc1ccnc(Br)c1F)C(F)(F)CCC(O)(CC#N)C3` (single isomer, unassigned) [Example 89, (3R,8S*)-N-(2-Bromo-3-fluoropyridin-4-yl)-8-(cyanomethyl)-11,11-difluoro-8-hydroxy-3-methyl-3,4,8,9,10,11-hexahydro-1H-pyrido[4′,3′:3,4]pyrazolo[1,5-a]azepine-2(7H)-carboxamide], for which the concentration for a half-maximal effect (EC50) under setting [1] was 28 nM.
For the compound `C#CC1(O)CCC(F)(F)c2c3c(nn2C1)C[C@@H](C)N(C(=O)Nc1ccnc(C(F)F)c1F)C3` (single isomer, unassigned) [Example 97, (3R,8R*)-N-(2-(Difluoromethyl)-3-fluoropyridin-4-yl)-8-ethynyl-11,11-difluoro-8-hydroxy-3-methyl-3,4,8,9,10,11-hexahydro-1H-pyrido[4′,3′:3,4]pyrazolo[1,5-a]azepine-2(7H)-carboxamide], under setting [1], the concentration for a half-maximal effect (EC50) was 35 nM.
In the case of `C[C@@H]1Cc2nn3c(c2CN1C(=O)Nc1ccc(F)c(C#N)c1)C(F)(F)CC(O)CC3` (single isomer, unassigned) [Example 119, (3R,9S*)-N-(3-Cyano-4-fluorophenyl)-11,11-difluoro-9-hydroxyl-3-methyl-3,4,8,9,10,11-hexahydro-1H-pyrido[4′,3′:3,4]pyrazolo[1,5-a]azepine-2(7H)-carboxamide], the EC50 under setting [1] worked out at 1 nM.
Take `C[C@@H]1Cc2nn3c(c2CN1C(=O)Nc1ccnc(Br)c1F)C(F)=CC(O)CC3` (single isomer, unassigned) [Example 123, (3R,9R*)-N-(2-Bromo-3-fluoropyridin-4-yl)-11-fluoro-9-hydroxy-3-methyl-3,4,8,9-tetrahydro-1H-pyrido[4′,3′:3,4]pyrazolo[1,5-a]azepine-2(7H)-carboxamide]: the EC50 under setting [1] is 18 nM.
With `C[C@@H]1Cc2nn3c(c2CN1C(=O)Nc1ccnc(Br)c1F)C(F)(F)CC(O)(CF)CC3` (single isomer, unassigned) [Example 127, (3R,9R*)-N-(2-Bromo-3-fluoropyridin-4-yl)-11,11-difluoro-9-(fluoromethyl)-9-hydroxy-3-methyl-3,4,8,9,10,11-hexahydro-1H-pyrido[4′,3′:3,4]pyrazolo[1,5-a]azepine-2(7H)-carboxamide], the half-maximal effective concentration (EC50) under setting [1] amounted to 5 nM.
On to `C[C@@H]1Cc2nn3c(c2CN1C(=O)Nc1ccc(F)c(C#N)c1)C(F)(F)CC(O)(CF)CC3` (single isomer, unassigned) [Example 128, (3R,9R*)-N-(3-Cyano-4-fluorophenyl)-11,11-difluoro-9-(fluoromethyl)-9-hydroxy-3-methyl-3,4,8,9,10,11-hexahydro-1H-pyrido[4′,3′:3,4]pyrazolo[1,5-a]azepine-2(7H)-carboxamide], for which the EC50 under setting [1] amounted to 1 nM.
Still for that read-out and setting: then `O=C(Nc1ccnc(Br)c1F)N1CCc2nn3c(c2C1)C(F)(F)CC(CO)CC3` (single isomer, unassigned) [Example 133, (S*)-N-(2-Bromo-3-fluoropyridin-4-yl)-11,11-difluoro-9-(hydroxymethyl)-3,4,8,9,10,11-hexahydro-1H-pyrido[4′,3′:3,4]pyrazolo[1,5-a]azepine-2(7H)-carboxamide], with 38 nM; and `O=C(Nc1ccnc(Br)c1F)N1CCc2nn3c(c2C1)C(F)(F)CC(CO)CC3` (single isomer, unassigned) [Example 135, (R*)-N-(2-Bromo-3-fluoropyridin-4-yl)-11,11-difluoro-9-(hydroxymethyl)-3,4,8,9,10,11-hexahydro-1H-pyrido[4′,3′:3,4]pyrazolo[1,5-a]azepine-2(7H)-carboxamide], with 19 nM; and `C[C@@]1(O)CCC(F)(F)c2c3c(nn2C1)CCN(C(=O)Nc1ccc(F)c(C#N)c1)C3` (stereo in doubt) [Example 55, N-(3-Cyano-4-fluorophenyl)-11,11-difluoro-8-hydroxy-8-methyl-3,4,8,9,10,11-hexahydro-1H-pyrido[4′,3′:3,4]pyrazolo[1,5-a]azepine-2(7H)-carboxamide], with 29 nM.
The same measure, in the same setting: then `C=C1CCC(F)(F)c2c3c(nn2C1)CCN(C(=O)Nc1ccc(F)c(C#N)c1)C3` [Example 1, N-(3-Cyano-4-fluorophenyl)-11,11-difluoro-8-methylene-3,4,8,9,10,11-hexahydro-1H-pyrido[4′,3′:3,4]pyrazolo[1,5-a]azepine-2(7H)-carboxamide], with 44 nM; and `C=C1CCC(F)(F)c2c3c(nn2C1)CCN(C(=O)Nc1ccc(F)c(C(F)(F)F)c1)C3` [Example 2, 11,11-Difluoro-N-(4-fluoro-3-(trifluoromethyl)phenyl)-8-methylene-3,4,8,9,10,11-hexahydro-1H-pyrido[4′,3′:3,4]pyrazolo[1,5-a]azepine-2(7H)-carboxamide], with 51 nM.

Usually EC50 stands for the concentration needed to bring the measured effect to its halfway point.
